In the CheMixHub viscosity set:

Test: xn = mol fraction of the nth substance listed

CCCCCCN + C1CCCCC1
303.15 K, 101 kPa
Details	viscosity [mPa·s]
x2 = 0.1064	0.7192
x2 = 0.2992	0.7005
x2 = 0.4953	0.7021
x2 = 0.5974	0.7073
x2 = 0.6964	0.7145
x2 = 0.7966	0.72
x2 = 0.898	0.7541

COC(=O)OC + C1CCCCC1
viscosity [mPa·s], 101.33 kPa
Details	x1 = 0.101	x1 = 0.1993	x1 = 0.3026	x1 = 0.3999	x1 = 0.5	x1 = 0.5996	x1 = 0.7039	x1 = 0.8005	x1 = 0.9028	x1 = 0.9031
298.15 K	0.686	0.616	–	0.535	0.52	0.507	0.499	0.502	0.515	–
303.15 K	0.636	0.573	0.533	0.5	0.485	0.475	0.47	0.472	0.491	–
308.15 K	0.59	0.535	0.498	0.463	0.455	0.445	0.442	0.444	–	0.457

COCCOCCOC + C1CCCCC1
viscosity [mPa·s], 101.33 kPa
Details	x1 = 0.0981	x1 = 0.1885	x1 = 0.2854	x1 = 0.3996	x1 = 0.5024	x1 = 0.6005	x1 = 0.7027	x1 = 0.8014	x1 = 0.898
298.15 K	0.794	0.765	0.76	0.769	0.785	0.808	0.843	0.882	0.924
303.15 K	0.734	0.706	0.702	0.714	0.73	0.751	0.779	0.813	0.851
308.15 K	0.677	0.654	0.653	0.65	0.679	0.697	0.725	0.756	0.792

Oc1ccccc1 + C1CCCCC1
viscosity [mPa·s], 303.15 K
Details	x2 = 0.0815	x2 = 0.2049	x2 = 0.2824	x2 = 0.4033	x2 = 0.501	x2 = 0.5012	x2 = 0.5905	x2 = 0.7019	x2 = 0.7969	x2 = 0.8953
101 kPa	5.517	3.87	3.177	2.326	1.864	–	1.552	1.255	1.066	0.898
101.33 kPa	5.517	3.87	3.177	2.326	–	1.864	1.552	1.255	1.066	0.898

ClC(Cl)C(Cl)Cl + C1CCOC1
303.15 K, 101 kPa
Details	viscosity [mPa·s]
x2 = 0.0912	1.403
x2 = 0.1846	1.347
x2 = 0.2753	1.283
x2 = 0.4617	1.108
x2 = 0.5426	1.015
x2 = 0.6763	0.8466
x2 = 0.7791	0.7155
x2 = 0.8994	0.5718
x2 = 0.9513	0.515

ClC(Cl)C(Cl)Cl + C1COCCO1
303.15 K, 101.33 kPa
Details	viscosity [mPa·s]
x2 = 0.0869	1.441
x2 = 0.1835	1.419
x2 = 0.2833	1.392
x2 = 0.3491	1.372
x2 = 0.461	1.331
x2 = 0.5705	1.287
x2 = 0.6587	1.245
x2 = 0.7613	1.198
x2 = 0.8189	1.169
x2 = 0.908	1.128

Oc1ccccc1 + C1COCCO1
308.15 K, 101 kPa
Details	viscosity [mPa·s]
x2 = 0.1	4.829
x2 = 0.2	4.471
x2 = 0.3	3.888
x2 = 0.4	3.179
x2 = 0.5	2.568
x2 = 0.6	2.062
x2 = 0.7	1.664
x2 = 0.8	1.371
x2 = 0.9	1.141

ClC(Cl)C(Cl)Cl + C=C(C)C(=O)OC
303.15 K, 101 kPa
Details	viscosity [mPa·s]
x2 = 0.0942	1.422
x2 = 0.1967	1.317
x2 = 0.2785	1.235
x2 = 0.4978	0.9971
x2 = 0.598	0.8879
x2 = 0.7131	0.7662
x2 = 0.905	0.5902

COCCOCCOC + CC1COC(=O)O1
viscosity [mPa·s], 101.33 kPa
Details	298.15 K	308.15 K	318.15 K
x1 = 0.021	2.427	2	1.666
x1 = 0.0421	2.372	1.94	1.641
x1 = 0.0759	2.295	1.87	1.565
x1 = 0.0976	2.245	1.835	1.529
x1 = 0.1779	2.081	1.693	1.42
x1 = 0.2468	1.953	1.595	1.332
x1 = 0.3441	1.782	1.458	1.216
x1 = 0.3815	1.719	1.412	1.176
x1 = 0.4148	1.669	1.362	1.145
x1 = 0.4853	1.573	1.291	1.083
x1 = 0.5455	1.488	1.226	1.038
x1 = 0.6708	1.324	1.101	0.938
x1 = 0.7643	1.223	1.017	0.877
x1 = 0.8341	1.148	0.959	0.829
x1 = 0.8725	1.107	0.928	0.804
x1 = 0.9275	1.06	0.889	0.774
x1 = 0.9513	1.035	0.874	0.758
x1 = 0.9796	1.005	0.852	0.739

CCCC[N+](CCCC)(CCCC)CCCC.F[B-](F)(F)F + CC#N
viscosity [mPa·s], 100 kPa
Details	x1 = 0.004121	x1 = 0.008132	x1 = 0.01219	x1 = 0.01614	x1 = 0.02013	x1 = 0.0241	x1 = 0.02789	x1 = 0.03177	x1 = 0.03562	x1 = 0.0394
293.15 K	0.423	0.446	0.472	0.499	0.528	0.559	0.591	0.625	0.661	0.698
298.15 K	0.404	0.426	0.45	0.475	0.502	0.532	0.561	0.594	0.628	0.663
303.15 K	0.385	0.406	0.429	0.453	0.48	0.507	0.536	0.567	0.599	0.633
308.15 K	0.369	0.389	0.411	0.433	0.458	0.484	0.511	0.54	0.57	0.602
313.15 K	0.354	0.373	0.393	0.414	0.437	0.462	0.487	0.514	0.543	0.572
318.15 K	0.34	0.358	0.377	0.397	0.418	0.441	0.464	0.489	0.516	0.544
323.15 K	0.327	0.344	0.362	0.38	0.4	0.422	0.443	0.467	0.491	0.517

ClC(Cl)C(Cl)Cl + CC#N
303.15 K, 101.32 kPa
Details	viscosity [mPa·s]
x2 = 0.1125	1.381
x2 = 0.2007	1.315
x2 = 0.2582	1.266
x2 = 0.3568	1.17
x2 = 0.4174	1.103
x2 = 0.4937	1.012
x2 = 0.5964	0.8767
x2 = 0.6989	0.7317
x2 = 0.8504	0.5162
x2 = 0.9233	0.4184

N#CCCO + CC#N
298 K, 101 kPa
Details	viscosity [mPa·s]
x1 = 0.1342	0.466
x1 = 0.2793	0.689
x1 = 0.4366	0.906
x1 = 0.6079	1.358
x1 = 0.7949	2.144

Oc1ccccc1 + CC(=O)c1ccccc1
303.15 K, 101 kPa
Details	viscosity [mPa·s]
x2 = 0.0901	4.976
x2 = 0.2182	4.319
x2 = 0.3102	3.905
x2 = 0.4048	3.519
x2 = 0.5083	3.131
x2 = 0.5936	2.839
x2 = 0.7241	2.404
x2 = 0.7583	2.295
x2 = 0.8846	1.887

COCCOCCOC + CC(C)(C)O
viscosity [mPa·s], 101 kPa
Details	x1 = 0.1032	x1 = 0.2054	x1 = 0.3014	x1 = 0.4031	x1 = 0.5025	x1 = 0.6046	x1 = 0.7072	x1 = 0.8058	x1 = 0.8973
298.15 K	2.377	1.768	1.453	1.259	1.146	1.073	1.032	1.008	0.995
303.15 K	1.954	1.523	1.274	1.123	1.033	0.974	0.943	0.921	0.915
308.15 K	1.625	1.319	1.13	1.009	0.937	0.888	0.864	0.852	0.844

Oc1ccccc1 + CC(C)=O
viscosity [mPa·s], 101 kPa
Details	293.2 K	302.95 K	313.25 K	322.95 K
x1 = 0.0613	–	0.36	0.328	0.299
x1 = 0.0926	0.429	–	–	–
x1 = 0.1303	–	0.441	0.399	0.36
x1 = 0.1837	0.56	–	–	–
x1 = 0.1912	–	0.521	0.47	0.422
x1 = 0.2695	–	0.67	0.59	0.53
x1 = 0.2749	0.755	–	–	–
x1 = 0.3325	–	0.808	0.711	0.628
x1 = 0.3763	1.055	–	–	–
x1 = 0.4181	–	1.058	0.904	0.794
x1 = 0.458	1.379	–	–	–
x1 = 0.4832	–	1.319	1.101	0.95
x1 = 0.5364	1.853	–	–	–
x1 = 0.5583	–	1.658	1.363	1.15
x1 = 0.6341	2.75	–	–	–
x1 = 0.6402	–	2.18	1.741	1.425
x1 = 0.6982	3.59	–	–	–
x1 = 0.7215	–	2.91	2.23	1.785
x1 = 0.7829	4.97	–	–	–
x1 = 0.8187	–	3.915	2.875	2.245
x1 = 0.8885	–	4.905	3.465	2.615
x1 = 0.8891	7.3	–	–	–
